Data on 20 compounds can be found in patent US12410124B2 (priority 2019, dated 2025).

Where two headings read alike, the source gives them in different places.

The subject of the assay is fetal rat midbrain neurons. Kind of assay: Survival rate of primary midbrain neurons induced by MPP+ (CCK-8). In kind it is cell-based. The settings on record: for viability at 5 µM / viability at 10 µM / viability at 20 µM: Rattus norvegicus, Neuron, read-out: Survival rate (%); for survival rate compared with the styryl sulfone prototype compounds: no concentration stated. From the text: The main pathological feature of Parkinson's disease (PD) lies in the degeneration and loss of dopaminergic neuron in the substantia nigra-striatum of the midbrain. 1-Methyl-4-phenylpyridinium (MPP+) has a high affinity to dopamine carriers and a selective toxicity on dopaminergic neurons. Thus, MPP+ is one of the most ideal classic neurotoxins for establishing PD cell models. The primary cell culture of fetal rat midbrain is often used to establish PD cell models in recent years. Although it is more cumbersome and has higher technical requirements than cell line culture, it is closer to the pathological characteristics of PD. Thus, a PD cell model is established using neurons from the primary cell culture of fetal rat midbrain under MPP+ induction, to evaluate the protective effect of target compounds on the model neurons.
The midbrain was separated from a fetal rat of a 15-day-pregnant SD rat and cut into pieces, then subjected to trypsin digestion, pipetting, screen filtration, and resuspension steps, and inoculated in a 24-well cell culture plate pre-coated with poly-D-lysine. 12 hours after culture, cytarabine was added to inhibit the growth of glial cells. On the 5th day of neuron growth, the toxin MPP+ can be added to make a PD cell model. When detecting the activity of a target compound, the target compound was pre-incubated with midbrain neurons for 3 h, then MPP+ was added, and after 48 h co-incubation the neuronal viability was detected by CCK-8 method and the neuronal survival rate was calculated to evaluate the inhibitory activity of the target compound on the midbrain neuronal PD damage. The experiment included blank control group, MPP+ model group, positive control group (caffeic acid phenethyl ester, CAPE), prototype control group (styryl sulfone compounds 3B, 3C, 3D, and 3G), and target compound group (prepared according to Examples 1-22 in the invention).

Setting [1] is: 5 μM, 3 h pre-incubation, 48 h with MPP+.
Where [2] appears, read: 10 μM, 3 h pre-incubation, 48 h with MPP+.
The mark [3] stands for this setting: 20 μM, 3 h pre-incubation, 48 h with MPP+.

As to `O=S(=O)(/C=C/c1ccc(O)c(O)c1)Cc1ccc(C(F)(F)F)cc1` [Compound 3B, (E)-4-{2-[(4-trifluoromethylphenyl)mesyl]ethenyl}benzene-1,2-diol, reference compound], the viability at 5 µM under setting [1] was found to be 65.9 ± 1.47%. Besides, the viability at 10 µM under setting [2] came to 76.4 ± 6.54%. Besides, under setting [3], the viability at 20 µM was found to be 84.9 ± 2.65%.

For `O=S(=O)(/C=C/c1ccc(O)c(O)c1)CCCc1ccccc1` [Compound 3C, (E)-4-{2-[(3-phenylpropyl)sulfonyl]ethenyl}benzene-1,2-diol, reference compound], the viability at 5 µM under setting [1] worked out at 61.3 ± 3.22%. Moreover, the viability at 10 µM under setting [2] was 75.7 ± 1.98%. In addition, the viability at 20 µM under setting [3] turned out to be 74.2 ± 4.55%.

Take `O=S(=O)(/C=C/c1ccc(O)c(O)c1)Cc1ccc(Cl)cc1` [Compound 3D, (E)-4-{2-[(4-chlorophenyl)mesyl]ethenyl}benzene-1,2-diol, reference compound]: the viability at 5 µM under setting [1] was determined as 69.5 ± 5.21%. Besides, the viability at 10 µM under setting [2] was 84.1 ± 1.87%. Further, the viability at 20 µM under setting [3] was determined as 91.5 ± 2.32%.

As for `CC(C)(C)c1ccc(CS(=O)(=O)/C=C/c2ccc(O)c(O)c2)cc1` [Compound 3G, (E)-4-{2-[(4-t-butylphenyl)mesyl]ethenyl}benzene-1,2-diol, reference compound], the viability at 5 µM under setting [1] came out at 51.4 ± 3.54%. Also, under setting [2], the viability at 10 µM was found to be 68.4 ± 1.89%. The viability at 20 µM under setting [3] came out at 71.2 ± 3.75%.

In the case of `CC(C)N(c1ccc(CCS(=O)(=O)/C=C/c2ccc(OC(=O)N(C)c3ccc(I)cc3)c(OCCOCc3ccccc3)c2)cc1)C(C)C` [Compound A1-3, (E)-2-(2-benzyloxyethoxy)-4-{2-[4-(N,N-diisopropylamino)phenylethylsulfonyl]ethenyl}phenyl-N-(4-iodophenyl)-N-methylcarbamate], for the setting “48 h”, the viability at 5 µM worked out at 74.3 ± 3.75%, the viability at 10 µM turned out to be 89.7 ± 1.95% and the viability at 20 µM was 94.1 ± 1.87%.

With `CCN(CC)C(=O)Oc1ccc(/C=C/S(=O)(=O)Cc2ccc(C(F)(F)F)cc2)cc1OC(=O)N(CC)CC` [Compound B1-1, (E)-4-{2-[(4-trifluoromethylphenyl)mesyl]ethenyl}-1,2-phenylenebis(diethylcarbamate)], the “survival rate compared with the styryl sulfone prototype compounds” value is given as “significantly increased”. Further, the viability at 5 µM under setting [1] came out at 78.5 ± 4.12%. For the same compound, under setting [2], the viability at 10 µM stood at 89.7 ± 2.89%. For the same compound, under setting [3], the viability at 20 µM amounted to 93.8 ± 1.59%.

On to `CCN(CC)C(=O)Oc1ccc(/C=C/S(=O)(=O)CCCc2ccccc2)cc1OC(=O)N(CC)CC` [Compound C1-1, (E)-4-[2-(3-phenylpropylsulfonyl)ethenyl]-1,2-phenylenebis(diethylcarbamate)], for which the “survival rate compared with the styryl sulfone prototype compounds” value was “significantly increased”. Under setting [1], the viability at 5 µM is 69.5 ± 3.89%. For the same compound, the viability at 10 µM under setting [2] is 82.2 ± 3.07%. For the same compound, the viability at 20 µM under setting [3] was 90.3 ± 2.17%.

On to `CCN(CC)C(=O)Oc1ccc(/C=C/S(=O)(=O)Cc2ccc(Cl)cc2)cc1OC(=O)N(CC)CC` [Compound D1-1, (E)-4-{2-[(4-chlorophenyl)mesyl]ethenyl}-1,2-phenylenebis(diethylcarbamate)], for which the “survival rate compared with the styryl sulfone prototype compounds” value is listed as “significantly increased”. For the same compound, the viability at 5 µM under setting [1] is 80.3 ± 2.67%. Besides, the viability at 10 µM under setting [2] came to 94.6 ± 3.76%. Under setting [3], the viability at 20 µM was determined as 98 ± 1.32%.

For `CC(=O)Oc1ccc(/C=C/S(=O)(=O)Cc2c(F)c(F)c(F)c(F)c2F)cc1OC(=O)NC(=O)c1ccc([N+](=O)[O-])c(C)c1` [Compound D5-4, (E)-2-[N-(3-methyl-4-nitrobenzoyl)carbamoyloxy]-4-{2-[(perfluorophenyl)mesyl]ethenyl}phenyl acetate], under setting [1], the viability at 5 µM is 60.5 ± 3.19%. Under setting [2], the viability at 10 µM was found to be 73.2 ± 4.53%. Further, the viability at 20 µM under setting [3] came to 87.5 ± 2.16%.

In the case of `CNC(=O)Oc1ccc(/C=C/S(=O)(=O)CC(Cl)c2ccc(Cl)c([N+](=O)[O-])c2)cc1O` (stereo not shown) [Compound E2-2, (E)-4-{2-[2-chloro-2-(4-chloro-3-nitrophenyl)ethylsulfonyl]ethenyl}-2-hydroxyphenyl-N-methylcarbamate], for the setting “48 h”, the viability at 5 µM was determined as 58.1 ± 4.27%, the viability at 10 µM is 69.3 ± 2.33% and the viability at 20 µM amounted to 86.1 ± 2.06%.

`CCN(CC)C(=O)Oc1ccc(/C=C/S(=O)(=O)Cc2ccc(C(C)(C)C)cc2)cc1OC(=O)N(CC)CC` [Compound G1-1, (E)-4-{2-[(4-t-butylphenyl)mesyl]ethenyl}-1,2-phenylenebis(diethylcarbamate)]: the “survival rate compared with the styryl sulfone prototype compounds” value is reported as “significantly increased”. Moreover, under setting [1], the viability at 5 µM is 78.5 ± 3.59%. Further, the viability at 10 µM under setting [2] was 85.9 ± 2.67%. The viability at 20 µM under setting [3] is 91.4 ± 1.59%.

Turning to `CCOC(CS(=O)(=O)/C=C/c1ccc(OC(C)=O)c(OC(=O)Nc2ccc(NC)cc2)c1)C(OCC)c1ccc(OCc2ccccc2)c(O)c1` (stereo not shown) [Compound H2-4, (E)-4-{2-[3-(4-benzyloxy-3-hydroxyphenyl)-2,3-diethoxypropyl]sulfonylethenyl}-2-[N-(4-methylaminophenyl)carbamoyloxy]phenyl acetate], under setting [1], the viability at 5 µM was determined as 69 ± 4.31%. For the same compound, under setting [2], the viability at 10 µM amounted to 81.5 ± 3.24%. For the same compound, under setting [3], the viability at 20 µM stood at 89.4 ± 1.65%.

For the compound `COCCN(C)C(=O)Oc1cc(/C=C/S(=O)(=O)CCc2cccc(-c3ccc(C)o3)c2)ccc1OC(C)=O` [Compound J1-4, (E)-2-[N-(2-methoxyethyl)-N-methylcarbamoyloxy]-4-{2-[3-(5-methylfur-2-yl)phenylethylsulfonyl]ethenyl}phenyl acetate], under “48 h”, the viability at 5 µM amounted to 75.2 ± 3.29%, the viability at 10 µM came to 84.8 ± 2.27% and the viability at 20 µM was determined as 90.3 ± 2.6%.

Regarding `CC(Br)C(Br)COc1cc(/C=C/S(=O)(=O)CCc2ccc(OCC(F)(F)F)cc2)ccc1OC(=O)Nc1ccsc1` (stereo not shown) [Compound K1-3, (E)-2-(2,3-dibromobutoxy)-4-{2-[4-(2,2,2-trifluoroethoxy)phenylethylsulfonyl]ethenyl}phenyl-N-(thien-3-yl)carbamate], the viability at 5 µM under setting [1] was 65.4 ± 4.31%. The viability at 10 µM under setting [2] stood at 72.1 ± 2.77%. For the same compound, under setting [3], the viability at 20 µM was determined as 83.2 ± 1.76%.

As to `C=CCOc1ccc(C/C=C/S(=O)(=O)/C=C/c2ccc(OC(C)=O)c(OC(=O)N(CC=C)CC=C)c2)cc1` [Compound K1-4, 4-{(E)-2-[(E)-3-(4-allyloxyphenyl)prop-1-en-1-yl]sulfonylethenyl}-2-(N,N-diallylcarbamoyloxy)phenyl acetate], the viability at 5 µM under setting [1] worked out at 76.7 ± 3.17%. Further, the viability at 10 µM under setting [2] was 87.1 ± 2.56%. The viability at 20 µM under setting [3] is 93.2 ± 1.81%.

Take `COc1cc(/C=C/S(=O)(=O)Cc2cc(OC)c(OC)c(OC)c2)ccc1OC(=O)N(c1ccccc1)c1ccccc1` [Compound K3-3, (E)-2-methoxy-4-{2-[(3,4,5-trimethoxyphenyl)mesyl]ethenyl}-phenyl-N,N-diphenylcarbamate]: the viability at 5 µM under setting [1] turned out to be 62.5 ± 3.58%. Besides, the viability at 10 µM under setting [2] was 75.5 ± 2.37%. Besides, the viability at 20 µM under setting [3] amounted to 88.5 ± 1.73%.

As for `O=C(NC(=O)C(F)(F)F)Oc1ccc(/C=C/S(=O)(=O)C(F)(F)c2ccc(Oc3ccccn3)cc2)cc1OC(=O)C(F)(F)C(F)(F)F` [Compound L1-4, (E)-5-{2-[(4-[pyridin-2-yl-oxy]phenyl)difluoromethylsulfonyl]ethenyl}-2-[N-(2,2,2-trifluoroacetyl)carbamoyloxy]phenyl-2,2,3,3,3-pentafluoropropionate], the viability at 5 µM under setting [1] is 67.5 ± 3.52%. Further, the viability at 10 µM under setting [2] is 75.4 ± 2.59%. In addition, the viability at 20 µM under setting [3] stood at 86.2 ± 1.86%.

With `CCN(C)C(=O)Oc1ccc(/C=C/S(=O)(=O)CC(c2ccc(-c3ccc(OC)c(OC)c3)cc2)[N+](=O)[O-])cc1OC(=O)N(C)CC` (stereo not shown) [Compound M1-1, (E)-4-{2-[2-(3′,4′-dimethoxy-[1,1′-biphenyl]-4-yl)-2-nitroethylsulfonyl]ethenyl}-1,2-phenylenebis(N-ethyl-N-methylcarbamate)], under “48 h”, the viability at 5 µM amounted to 82.4 ± 2.54%, the viability at 10 µM was 89.9 ± 3.67% and the viability at 20 µM is 95.1 ± 1.94%.

Consider `CN(C)c1ccc(CC(=O)Oc2cc(/C=C/S(=O)(=O)C(Br)c3ccc(Cc4ccc(N(C)C)cc4)cc3)ccc2OC(=O)N2CCCC2C(F)(F)F)cc1` (stereo not shown) [Compound M1-5], for which the viability at 5 µM under setting [1] is 68.2 ± 4.31%. The viability at 10 µM under setting [2] turned out to be 78.2 ± 3.76%. In addition, under setting [3], the viability at 20 µM is 86.9 ± 3.08%.

Regarding `Cc1ccc(N2CCN(C(=O)Oc3ccc(/C=C/S(=O)(=O)CCCC(c4ccc(OC(=O)CN(C)C)cc4)N(C)C)cc3OC(=O)N(C)c3ccccc3)CC2)cc1` (stereo not shown) [Compound P1-1, (E)-4-{2-[4-(dimethylamino)-4-(4-(N,N-dimethylglycyloxy)phenyl)butylsulfonyl]ethenyl}-2-(N-methyl-N-phenylcarbamoyloxy)phenyl-4-(p-methylphenyl)piperazine-1-carboxylate], for the setting “48 h”, the viability at 5 µM was 75.3 ± 3.12%, the viability at 10 µM was found to be 86.6 ± 2.39% and the viability at 20 µM is 92.2 ± 3.05%.
